PubChem BioAssay AID248 (DTP/NCI, 2004)
“And” between values parts separate entries of the source, which are not always exact repeats. Identical values can stand only once. Inconclusive results and toxic doses are left out. Cut-off read from the data, not from the text of the source: active = T/C of 150% or more; inactive = T/C below 125%.

System: L1210 leukemia ip in BDF1 mice, survival T/C
Assay: NCI In Vivo Anticancer Drug Screen. Data for tumor model L1210 Leukemia (intraperitoneal) in B6D2F1 (BDF1) mice
Details: endpoint: mean survival time, higher = longer survival
In short: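 Transplanted-tumor mice were given test agent; controls received vehicle only. Survival readings from the two groups were divided (treated over control).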

[1] = dose: 100.0 mg/kg/injection, schedule: Q01DX009 (ip), vehicle: saline with Tween-80
[2] = dose: 100.0 mg/kg/injection, schedule: Q04DX003 (ip), vehicle: saline with Tween-80
[3] = dose: 200.0 mg/kg/injection, schedule: Q04DX003 (ip), vehicle: saline with Tween-80
[4] = dose: 100.0 mg/kg/injection, schedule: Q04DX002 (ip), vehicle: saline with Tween-80
[5] = dose: 200.0 mg/kg/injection, schedule: Q04DX002 (ip), vehicle: saline with Tween-80

Measured: T/C

CCOC(=O)NP(NC(=O)NOC)NC(=O)OCC
inactive: dose: 100.0 mg/kg/injection, schedule: Q01DX001 (ip), vehicle: carboxymethylcellulose (CMC) 101 % of control | dose: 200.0 mg/kg/injection, schedule: Q01DX001 (ip), vehicle: carboxymethylcellulose (CMC) 93 % of control | dose: 400.0 mg/kg/injection, schedule: Q01DX001 (ip), vehicle: carboxymethylcellulose (CMC) 101 % of control

Nc1ccc(OCc2ccccc2)cc1
inactive: dose: 50.0 mg/kg/injection, schedule: Q01DX009 (ip), vehicle: saline with Tween-80 96 % of control | dose: 50.0 mg/kg/injection, schedule: Q04DX003 (ip), vehicle: saline with Tween-80 100 % of control | [1] 87 % of control | [2] 103 % of control | [3] 109 % of control

CCC[CH2][Sn]1([CH2]CCC)[O]OC(c2ccccc2)[O]1 (stereo not given)
inactive: dose: 0.5 mg/kg/injection, schedule: Q01DX009 (ip), vehicle: saline sonified 102 % of control | dose: 1.0 mg/kg/injection, schedule: Q01DX009 (ip), vehicle: saline sonified 98 % of control | dose: 2.0 mg/kg/injection, schedule: Q01DX009 (ip), vehicle: saline sonified 104 % of control

CSc1ncc(COP(=S)(OCc2cnc(SC)nc2N)OCc2cnc(SC)nc2N)c(N)n1
inactive: dose: 12.5 mg/kg/injection, schedule: Q04DX003 (ip), vehicle: saline 100 % of control | dose: 25.0 mg/kg/injection, schedule: Q04DX003 (ip), vehicle: saline 103 % of control | dose: 50.0 mg/kg/injection, schedule: Q04DX003 (ip), vehicle: saline 97 % of control

COC1C=CC23c4cc5c(cc4C(O)OC2CN(C)C3C1)OCO5 (stereo not given)
inactive: dose: 100.0 mg/kg/injection, schedule: Q01DX001 (ip), vehicle: saline 106 % of control

Cc1nc2ccccc2c(=O)n1-c1ccc(N(CCCl)CCCl)cc1
inactive: dose: 100.0 mg/kg/injection, schedule: Q04DX002 (ip), vehicle: saline 98 % of control | dose: 200.0 mg/kg/injection, schedule: Q04DX002 (ip), vehicle: saline 117 % of control | dose: 400.0 mg/kg/injection, schedule: Q04DX002 (ip), vehicle: saline 103 % of control

CCOC(=O)C1c2cc3c(cc2C(c2cc(OC)c(OC)c(OC)c2)C2C(=O)OCC12)OCO3 (stereo not given)
inactive: dose: 2.5 mg/kg/injection, schedule: Q01DX009 (ip), vehicle: Klucel (hydroxypropylcellulose) (HPC) 112 % of control | dose: 3.0 mg/kg/injection, schedule: Q01DX009 (ip), vehicle: Klucel (hydroxypropylcellulose) (HPC) 124 % of control | dose: 4.0 mg/kg/injection, schedule: Q01DX009 (ip), vehicle: Klucel (hydroxypropylcellulose) (HPC) 105 % of control | dose: 6.0 mg/kg/injection, schedule: Q01DX009 (ip), vehicle: Klucel (hydroxypropylcellulose) (HPC) 113 % of control | dose: 9.0 mg/kg/injection, schedule: Q01DX009 (ip), vehicle: Klucel (hydroxypropylcellulose) (HPC) 115 % of control | dose: 12.5 mg/kg/injection, schedule: Q01DX009 (ip), vehicle: Klucel (hydroxypropylcellulose) (HPC) 88 % of control

CCC1/C=C/C=C/CC(C)C(O)C(C)(O)C(=O)C(C)C(O)C(C)C(=O)C(C)C(O)C(C)/C=C/C(=O)OC2C(C)C(CC1)OC1(OC(CC(C)O)C(C)CC1=O)C2C (stereo not given) (tested in a mixture with another compound)
inactive: dose: 0.08 mg/kg/injection, schedule: Q01DX009 (ip), vehicle: saline 102 % of control | dose: 0.16 mg/kg/injection, schedule: Q01DX009 (ip), vehicle: saline 103 % of control | dose: 0.16 mg/kg/injection, schedule: Q04DX003 (ip), vehicle: saline 117 % of control | dose: 0.31 mg/kg/injection, schedule: Q01DX009 (ip), vehicle: saline 102 % of control | dose: 0.32 mg/kg/injection, schedule: Q01DX001 (ip), vehicle: saline 118 % of control | dose: 0.32 mg/kg/injection, schedule: Q01DX009 (ip), vehicle: saline 113 % of control | dose: 0.32 mg/kg/injection, schedule: Q04DX003 (ip), vehicle: saline 117 % of control | dose: 0.44 mg/kg/injection, schedule: Q01DX Z (ip), vehicle: other 114 % of control | dose: 0.44 mg/kg/injection, schedule: Q01DX Z (ip), vehicle: saline 100 % of control | dose: 0.47 mg/kg/injection, schedule: Q01DX009 (ip), vehicle: saline with Tween-80 120 % of control | dose: 0.47 mg/kg/injection, schedule: Q01DX009 (ip), vehicle: saline 101 % of control | dose: 0.63 mg/kg/injection, schedule: Q01DX009 (ip), vehicle: saline 104 % of control | dose: 0.66 mg/kg/injection, schedule: Q01DX Z (ip), vehicle: other 122 % of control | dose: 0.66 mg/kg/injection, schedule: Q01DX Z (ip), vehicle: saline 96 % of control | dose: 0.7 mg/kg/injection, schedule: Q01DX009 (ip), vehicle: saline 102 % of control | dose: 0.8 mg/kg/injection, schedule: Q01DX Z (ip), vehicle: methylcellulose (MC) 110 % of control | dose: 1.0 mg/kg/injection, schedule: Q01DX Z (ip), vehicle: saline 109 % of control and 116 % of control | dose: 1.2 mg/kg/injection, schedule: Q01DX Z (ip), vehicle: methylcellulose (MC) 106 % of control | dose: 1.25 mg/kg/injection, schedule: Q01DX009 (ip), vehicle: saline 102 % of control | dose: 1.5 mg/kg/injection, schedule: Q01DX Z (ip), vehicle: other 115 % of control | dose: 1.5 mg/kg/injection, schedule: Q01DX Z (ip), vehicle: saline 102 % of control and 118 % of control | dose: 1.8 mg/kg/injection, schedule: Q01DX Z (ip), vehicle: methylcellulose (MC) 106 % of control | dose: 2.5 mg/kg/injection, schedule: Q01DX009 (ip), vehicle: saline 96 % of control | dose: 2.6 mg/kg/injection, schedule: Q01DX001 (ip), vehicle: saline 112 % of control | dose: 2.7 mg/kg/injection, schedule: Q01DX Z (ip), vehicle: methylcellulose (MC) 107 % of control | dose: 4.0 mg/kg/injection, schedule: Q01DX001 (ip), vehicle: saline 117 % of control | dose: 4.0 mg/kg/injection, schedule: Q01DX Z (ip), vehicle: methylcellulose (MC) 102 % of control | dose: 5.0 mg/kg/injection, schedule: Q01DX009 (ip), vehicle: saline 110 % of control | dose: 6.0 mg/kg/injection, schedule: Q01DX001 (ip), vehicle: saline 123 % of control | dose: 8.0 mg/kg/injection, schedule: Q01DX Z (ip), vehicle: methylcellulose (MC) 92 % of control | dose: 10.0 mg/kg/injection, schedule: Q01DX009 (ip), vehicle: saline 124 % of control

O=C(CC(=O)C(F)(F)F)c1ccccc1.O=C(CC(=O)C(F)(F)F)c1ccccc1.[Cu]
inactive: dose: 6.25 mg/kg/injection, schedule: Q01DX009 (ip), vehicle: saline with Tween-80 95 % of control | dose: 6.25 mg/kg/injection, schedule: Q04DX003 (ip), vehicle: saline with Tween-80 91 % of control | dose: 12.5 mg/kg/injection, schedule: Q01DX009 (ip), vehicle: saline with Tween-80 95 % of control | dose: 12.5 mg/kg/injection, schedule: Q04DX003 (ip), vehicle: saline with Tween-80 92 % of control | dose: 25.0 mg/kg/injection, schedule: Q01DX009 (ip), vehicle: saline with Tween-80 92 % of control | dose: 25.0 mg/kg/injection, schedule: Q04DX003 (ip), vehicle: saline with Tween-80 91 % of control

COc1ccc(OC)c(-n2cccc2)c1
inactive: [4] 87 % of control | [5] 103 % of control | dose: 400.0 mg/kg/injection, schedule: Q04DX002 (ip), vehicle: saline with Tween-80 94 % of control

Cc1nc(-c2ccccc2)cc(=O)o1
inactive: dose: 100.0 mg/kg/injection, schedule: Q04DX003 (ip), vehicle: Klucel (hydroxypropylcellulose) (HPC) 102 % of control | dose: 200.0 mg/kg/injection, schedule: Q04DX003 (ip), vehicle: Klucel (hydroxypropylcellulose) (HPC) 102 % of control | dose: 400.0 mg/kg/injection, schedule: Q04DX003 (ip), vehicle: Klucel (hydroxypropylcellulose) (HPC) 98 % of control

CCOC(=O)c1c(-c2ccc(OC)c(OC)c2OCc2ccccc2)c(C)c(C)[nH]c1=O
inactive: dose: 75.0 mg/kg/injection, schedule: Q01DX001 (ip), vehicle: carboxymethylcellulose (CMC) 102 % of control | dose: 150.0 mg/kg/injection, schedule: Q01DX001 (ip), vehicle: carboxymethylcellulose (CMC) 102 % of control | dose: 300.0 mg/kg/injection, schedule: Q01DX001 (ip), vehicle: carboxymethylcellulose (CMC) 102 % of control

[N-]=[N+]=NC1=CC(=O)C(c2ccccc2)=CC1=O
inactive: [4] 102 % of control | [5] 97 % of control

Cc1ccc(NC(=O)CS)cc1
inactive: [2] 100 % of control | [3] 93 % of control

OCCN(CCO)c1cc(O)cc(O)c1
inactive: [1] 98 % of control | [2] 98 % of control | dose: 200.0 mg/kg/injection, schedule: Q01DX009 (ip), vehicle: saline with Tween-80 96 % of control | [3] 91 % of control | dose: 400.0 mg/kg/injection, schedule: Q01DX009 (ip), vehicle: saline with Tween-80 96 % of control | dose: 400.0 mg/kg/injection, schedule: Q04DX003 (ip), vehicle: saline with Tween-80 102 % of control
